Measured values published in publication PMC9475448, “What a difference a methylene makes: replacing Glu with Asp or Aad in the Lys-urea-Glu pharmacophore of PSMA-targeting radioligands to reduce kidney and salivary gland uptake” (Theranostics, 2022).
“Also recorded” adds a separate entry of the source. Where two headings read alike, the source gives them in different places.

How the values were obtained:
[1] = tested on: LNCaP tumor and major mouse organs/tissues; assay: Radiation dosimetry calculation with OLINDA software from biodistribution data; conditions: 25-g mouse
Excerpt: The biodistribution data (available in the Supplemental Table s 5- 6) were used to determine the kinetics input values required by OLINDA. First, each of the values was decayed to its corresponding time point (the values on the table are shown at injection time). Then the different time-points of the uptake data (%IA/g) for each organ were fitted to both mono- exponential ( ) and bi-exponential ( ) functions using in-house software developed in Python. The best fit was selected based on maximizing the coefficient of determination (R2) of the fit and minimizing the residuals. The areas under the curves were analytically calculated based on the parameters obtained from the best fit of each organ and this provided the kinetic input values required by OLINDA.
In the mouse case, the adrenals, blood, fat, and muscle are not modeled in the phantom. These organs were grouped together and included in what OLINDA calls the remainder of the body .
Lastly, the numbers of decays in the tumors were also calculated based on the biodistribution data of the mice and the values were inputted into the sphere model available in OLINDA.

LNCaP tumor-bearing mice [2] = assay: Longitudinal SPECT/CT imaging of 177Lu-labeled ligands; format: in vivo
Experimental: SPECT/CT imaging experiments were conducted using the MILabs (Utrecht, The Netherlands) U-SPECT-II/CT scanner. Each tumor-bearing mouse (n = 1-2 was injected with ∼37 MBq (50-250 pmol) of ^177Lu-labeled compound through a lateral caudal tail vein. The mice were imaged at 1, 4, 24, 72, and 120 h after injection. At each time point, a 5-min CT scan was conducted first for anatomical reference followed by 2 × 30-min static emission scans acquired in list mode.

LNCaP tumor-bearing mice [3] = conditions: mouse, in vivo
LNCaP tumor-bearing mice [4] = assay: Radioligand therapy study in LNCaP tumor-bearing NRG mice
LNCaP tumor-bearing mice [5] = assay: Ex vivo biodistribution of 177Lu-labeled ligands in LNCaP tumor-bearing NRG mice
[6] = 1 h post-injection, listed as [177Lu]Lu-HTK03149

O=C([O-])CN1CCN(CC(=O)[O-])CCN(CC(=O)NCC2CCC(C(=O)NC(Cc3c4ccccc4cc4ccccc34)C(=O)NCCCCC(NC(=O)NC(CCCC(=O)O)C(=O)O)C(=O)O)CC2)CCN(CC(=O)[O-])CC1.[177Lu+3] (centres unmarked) [[^177Lu]Lu-HTK03149]
Kinetics value ([1]; source organ Brain): 2.23E-03 MBq-h/MBq | Kinetics value ([1]; source organ Cortical bone): 7.60E-02 MBq-h/MBq | Kinetics value ([1]; source organ Heart contents): 1.94E-02 MBq-h/MBq | Kinetics value ([1]; source organ Kidneys): 2.41E-01 MBq-h/MBq | Kinetics value ([1]; source organ Large intestine): 9.24E-02 MBq-h/MBq | Kinetics value ([1]; source organ Liver): 3.91E-01 MBq-h/MBq | Kinetics value ([1]; source organ Lungs): 1.72E-02 MBq-h/MBq | Kinetics value ([1]; source organ Pancreas): 1.79E-02 MBq-h/MBq | Kinetics value ([1]; source organ Remainder of the body): 5.31E-01 MBq-h/MBq | Kinetics value ([1]; source organ Small intestine): 2.76E-01 MBq-h/MBq | Kinetics value ([1]; source organ Spleen): 2.30E-02 MBq-h/MBq | Kinetics value ([1]; source organ Stomach): 8.07E-03 MBq-h/MBq | Kinetics value ([1]; source organ Testes): 1.29E-02 MBq-h/MBq | Kinetics value ([1]; source organ Thyroid): 2.03E-03 MBq-h/MBq | Kinetics value ([1]; source organ Urinary bladder contents): 8.14E-01 MBq-h/MBq | Excretion pathway (SPECT imaging) (LNCaP tumor-bearing mice [2]; mouse, in vivo): excreted mainly through the renal pathway; also recorded: excreted mainly via the renal pathway | Tumor size change in SPECT/CT images (LNCaP tumor-bearing mice [2]; ~37 MBq injected): tumors shrank from Day 1 to Day 5 | Spleen uptake (LNCaP tumor-bearing mice [3]): 0.142 ± 0.062 %IA/g | Median survival (LNCaP tumor-bearing mice [4]; 9.3 MBq injected): 52 days | Median survival (LNCaP tumor-bearing mice [4]; 18.5 MBq injected): 63 days | Median survival (LNCaP tumor-bearing mice [4]; 37 MBq injected): 88 days | Median survival (LNCaP tumor-bearing mice [4]; 74 MBq injected): 142 days | Median survival (LNCaP tumor-bearing mice [4]; 148 MBq injected): >180 days | Weight loss of treated mice (LNCaP tumor-bearing mice [4]; injected radioactivity as high as 148 MBq): did not observe any weight loss | Adrenal glands uptake (LNCaP tumor-bearing mice [5]; 1 h post-injection): 0.352 ± 0.071 %IA/g | Blood uptake (LNCaP tumor-bearing mice [5]; 1 h post-injection): 0.876 ± 0.073 %IA/g | Blood:Salivary gland uptake ratio (LNCaP tumor-bearing mice [5]; 1 h post-injection): 3.98 ± 0.65 | Bone uptake (LNCaP tumor-bearing mice [5]; 1 h post-injection): 0.072 ± 0.020 %IA/g | Brain uptake (LNCaP tumor-bearing mice [5]; 1 h post-injection): 0.022 ± 0.002 %IA/g | Fat uptake (LNCaP tumor-bearing mice [5]; 1 h post-injection): 0.136 ± 0.049 %IA/g | Heart uptake (LNCaP tumor-bearing mice [5]; 1 h post-injection): 0.281 ± 0.036 %IA/g | Intestines uptake (LNCaP tumor-bearing mice [5]; 1 h post-injection): 0.267 ± 0.063 %IA/g | Kidneys uptake (LNCaP tumor-bearing mice [5]; 1 h post-injection): 7.67±1.35 %IA/g | Lacrimal glands uptake (LNCaP tumor-bearing mice [5]; 1 h post-injection): 0.022 ± 0.006 %IA/g | Liver uptake (LNCaP tumor-bearing mice [5]; 1 h post-injection): 0.264 ± 0.031 %IA/g | Lungs uptake (LNCaP tumor-bearing mice [5]; 1 h post-injection): 0.721 ± 0.056 %IA/g | Muscle uptake (LNCaP tumor-bearing mice [5]; 1 h post-injection): 0.182 ± 0.138 %IA/g | Pancreas uptake (LNCaP tumor-bearing mice [5]; 1 h post-injection): 0.165 ± 0.028 %IA/g | Salivary glands uptake (LNCaP tumor-bearing mice [5]; 1 h post-injection): 0.23±0.06 %IA/g | Spleen uptake (LNCaP tumor-bearing mice [5]; 1 h post-injection): 0.260 ± 0.045 %IA/g | Stomach uptake (LNCaP tumor-bearing mice [5]; 1 h post-injection): 0.096 ± 0.020 %IA/g | Testes uptake (LNCaP tumor-bearing mice [5]; 1 h post-injection): 0.255 ± 0.019 %IA/g | Thyroid uptake (LNCaP tumor-bearing mice [5]; 1 h post-injection): 0.269 ± 0.021 %IA/g | Tumor uptake (LNCaP tumor-bearing mice [5]; 1 h post-injection): 13.96 ± 2.155 %IA/g | Tumor:Blood uptake ratio (LNCaP tumor-bearing mice [5]; 1 h post-injection): 16.0 ± 2.44 | Tumor:Muscle uptake ratio (LNCaP tumor-bearing mice [5]; 1 h post-injection): 101 ± 48.3 | Tumor:Salivary gland uptake ratio (LNCaP tumor-bearing mice [5]; 1 h post-injection): 63.4 ± 13.6 | Kidneys uptake (LNCaP tumor-bearing mice [5]; [6]): 7.672 ± 1.346 %IA/g | Salivary glands uptake (LNCaP tumor-bearing mice [5]; [6]): 0.227 ± 0.062 %IA/g | Adrenal glands uptake (LNCaP tumor-bearing mice [5]; 4 h post-injection): 0.085 ± 0.007 %IA/g | Blood uptake (LNCaP tumor-bearing mice [5]; 4 h post-injection): 0.167 ± 0.033 %IA/g | Blood:Salivary gland uptake ratio (LNCaP tumor-bearing mice [5]; 4 h post-injection): 3.32 ± 0.59 | Bone uptake (LNCaP tumor-bearing mice [5]; 4 h post-injection): 0.016 ± 0.010 %IA/g | Brain uptake (LNCaP tumor-bearing mice [5]; 4 h post-injection): 0.010 ± 0.001 %IA/g | Fat uptake (LNCaP tumor-bearing mice [5]; 4 h post-injection): 0.021 ± 0.003 %IA/g | Heart uptake (LNCaP tumor-bearing mice [5]; 4 h post-injection): 0.070 ± 0.013 %IA/g | Intestines uptake (LNCaP tumor-bearing mice [5]; 4 h post-injection): 0.185 ± 0.067 %IA/g | Kidneys uptake (LNCaP tumor-bearing mice [5]; 4 h post-injection): 1.67±0.38 %IA/g | Lacrimal glands uptake (LNCaP tumor-bearing mice [5]; 4 h post-injection): 0.029 ± 0.014 %IA/g | Liver uptake (LNCaP tumor-bearing mice [5]; 4 h post-injection): 0.108 ± 0.010 %IA/g | Lungs uptake (LNCaP tumor-bearing mice [5]; 4 h post-injection): 0.169 ± 0.012 %IA/g | Muscle uptake (LNCaP tumor-bearing mice [5]; 4 h post-injection): 0.021 ± 0.005 %IA/g | Pancreas uptake (LNCaP tumor-bearing mice [5]; 4 h post-injection): 0.034 ± 0.004 %IA/g | Salivary glands uptake (LNCaP tumor-bearing mice [5]; 4 h post-injection): 0.05±0.01 %IA/g | Spleen uptake (LNCaP tumor-bearing mice [5]; 4 h post-injection): 0.089 ± 0.020 %IA/g | Stomach uptake (LNCaP tumor-bearing mice [5]; 4 h post-injection): 0.049 ± 0.021 %IA/g | Testes uptake (LNCaP tumor-bearing mice [5]; 4 h post-injection): 0.056 ± 0.005 %IA/g | Thyroid uptake (LNCaP tumor-bearing mice [5]; 4 h post-injection): 0.066 ± 0.008 %IA/g | Tumor uptake (LNCaP tumor-bearing mice [5]; 4 h post-injection): 20.9±2.99 %IA/g | Tumor:Muscle uptake ratio (LNCaP tumor-bearing mice [5]; 4 h post-injection): 1028 ± 227 | Tumor:Salivary gland uptake ratio (LNCaP tumor-bearing mice [5]; 4 h post-injection): 415 ± 60.5
